{"source": "patent US20130202649A1", "about": "“ACTIVATION OF INNATE IMMUNITY FOR NUCLEAR REPROGRAMMING OF SOMATIC CELLS” (The Board of Trustees of the Leland Stanford Junior …, priority 2012, published 2013)", "key": {"[1]": {"tested_on": "MEFs expressing a dox-inducible polycistronic transgene construct encoding the four reprogramming factors", "experiment": "Doxycycline-inducible iPSC generation from secondary MEFs", "assay_type": "cell-based, mouse", "conditions": "Dox-treated MEFs", "description": "To further test the hypothesis that TLR3 activation was required for efficient reprogramming, we isolated MEFs from murine embryos expressing a doxycycline (Dox)-inducible polycistronic transgene construct encoding the four reprogramming factors. To generate iPSCs, 10^5 MEFs/per well in 6-well plates were treated with Dox. In some wells, poly I:C was also added for the initial 6 days of the reprogramming process. In other wells, cells were infected with pMX-GFP on the first day of Dox treatment. Poly I:C or pMX-GFP each accelerated the expression of Oct4 and Sox2 (FIG. 6A). […] Similarly, infection with pMX-GFP seemed to accelerate colony formation, as a number of small colonies were observed by day 7 in the viral particle infected group (FIG. 16). By day 14, typical mES-like colonies appeared, many of which had activated SSEA-1. At this time point, the number of typical SSEA-1^+ colonies were increased by 7-8 fold in wells exposed to viral particles or poly I:C (FIG. 6B). Colony number increased further by day 21-28 (FIGS. 6B and 6C). […]\nDoxycycline-induced iPSCs: As previously described (Wernig et al., 2008), MEFs from chimeric embryos at E13.5 were isolated. […] The generation of iPSC colonies was monitored daily and scored at days 14 and 21. […]"}, "[2]": {"tested_on": "Oct4 and Sox2 promoters", "experiment": "ChIP of histone H3 trimethylation at Oct4 and Sox2 promoters", "assay_type": "cell-based, human", "description": "We hypothesized that TLR3 activation might enhance early transcriptional activation by inducing an open chromatin state, permitting the reprogramming factors to induce an ESC-specific gene expression pattern. Accordingly, we performed ChIP assays to detect trimethylation of histone H3 at lysine 4 (H3K4me3). This epigenetic modification marks transcriptionally active genes. Human fibroblasts were treated with pMXSox2, or with CPPSox2 in the presence of poly I:C or pMXGFP. […] In a similar fashion, we assessed histone H3 at lysine 9 (H3K9me3) in the Oct4 and Sox2 promoters. This epigenetic modification marks transcriptionally silenced genes. […] These studies provided an epigenetic mechanism to explain the effect of TLR3 activation to enhance nuclear reprogramming.\nChromatin Immunoprecipitation and ChIP-qPCR qChIP was performed as previously described (Lim et al., 2009; Peng et al., 2009). For qChIP and qRT-PCR, error estimates are standard deviations. Recovery of genomic DNA as the percentage input was calculated as the ratio of copy numbers in the immunoprecipitate to the input control. Primers of Oct4 and Sox2 promoters were purchased from Cell Signaling."}, "[3]": {"tested_on": "heterochromatin protein 1 (HP1)", "experiment": "HP1 distribution (confocal microscopy) and expression (Western)", "assay_type": "cell-based, human", "description": "In addition, the changes in methylation status of the Oct4 and Sox2 promoters that were accelerated by TLR3 activation were also associated with an accelerated redistribution of heterochromatin protein 1 (HP1; FIGS. 19A and 19B). HP1 that is bound to methylated H3K9 recruits the methylase Suv39h, leading to further methylation of H3K9, so as to consolidate a repressed state. The redistribution of HP1 induced by poly I:C is consistent with genome-wide epigenetic alterations induced by TLR3 activation. Histone acetylation favors an open chromatin state, maintained by proteins containing histone acetyltransferase (HAT) domains, such as p300 and CBP. NF-κB is a transcriptional effector of TLR3 activation, and interacts with CBP/p300 to positively regulate gene expression. […] This effect was mediated by TLR3, as shRNA knockdown of TLR3 or its adaptor protein TRIF1 reduced the effect of poly I:C on NF-κB activation (FIG. 20).\nHeterochromatin protein-1 (HP1) is associated with the closed conformation of chromatin. […] The fact that the current work implicated TRIF signaling likely aligns with the fact that the retrovirus RNA provides adequate TLR3 signaling to trigger NF-κB, IRF3 and IFN. While TLR3 mimicked signaling from the retrovirus vector, other TLR agonists as well as agonists for NOD-like receptors, RIG-1-like receptors, cytosolic DNA sensors and C-type lectin receptors, drive a similar inflammatory response converging on NF-κB, IRF-3 and IFNβ.\nWestern Blotting Proteins were extracted from BJ fibroblasts by solubilizing the cells in RIPA buffer containing 1× protease inhibitor cocktail. 25 μg of total protein was loaded and resolved on SDSpolyacrylamide gels, transferred to PVDF membranes and probed with the following primary antibodies: anti-HP1α and anti-HDAC (Cell Signaling), and β-actin (Sigma, A5441). Immunoblots were developed with enhanced chemiluminescence reagents (Amersham)."}, "[4]": {"tested_on": "NF-κB", "experiment": "NF-κB luciferase assay", "assay_type": "cell-based, human", "conditions": "BJ fibroblasts; poly IC 300 ng/ml", "description": "NF-κB Luciferase assay BJ fibroblasts (3×105) were seeded in a 6-well plate and subjected to either pMX-GFP infection, CPP-SOX2 treatment with or without poly IC (300 ng/ml). Cells were transfected with pNF-κB-Luc and pFC-MEKK as a positive control plasmid using Lipofectamine 2000. Twentyfour hours post-transfection, cells were collected for measuring the luciferase activity by the Bright-Glo™ Luciferase Assay System using a luminometer."}, "[5]": {"conditions": "in combination with CPPSox2, day 2"}}}
{"substance": "Polyinosinicpolycytidylic acid [Poly I:C]", "values": [{"measurement": "changes in the morphology of the MEFs", "setting": "[1]; 3 days", "value": "accelerated changes in the morphology"}, {"measurement": "expression of Oct4 and Sox2", "setting": "[1]; poly I:C initial 6 days or pMX-GFP on first day", "value": "accelerated"}, {"measurement": "H3K4 trimethylation at the Sox2 promoter", "setting": "[2]; CPP-treated fibroblasts", "value": "accelerated H3K4 trimethylation"}, {"measurement": "H3K9 trimethylation at the Sox2 promoter", "setting": "[2]; CPP-treated fibroblasts", "value": "accelerated the loss of H3K9 trimethylation"}, {"measurement": "H3K4 trimethylation at the Oct4 promoter", "setting": "[2]; agent alone, day 2 (time course day 2-6)", "value": "had no effect"}, {"measurement": "H3K4 trimethylation at the Oct4 promoter", "setting": "[2]; [5]", "value": "induced changes in H3K4 trimethylation"}, {"measurement": "H3K9 trimethylation at the Oct4 promoter", "setting": "[2]; [5]", "value": "enhanced the H3K9 trimethylation"}, {"measurement": "distribution of HP1", "setting": "[3]; co-administered with CPP-SOX2", "value": "marked changes in its distribution"}, {"measurement": "expression of HP-1α (immunoblot)", "setting": "[3]; day 2 to day 6", "value": "unaffected"}, {"measurement": "distribution of HP1", "setting": "[3]; in the absence of the CPP", "value": "no observable redistribution"}, {"measurement": "NF-κB activation (luciferase reporter)", "setting": "[4]", "value": "induced NF-κB activation"}]}
